Where “and” joins values, the source holds several entries; their conditions need not be identical. Identical values can stand only once. Like-named read-outs stand apart in the source and are kept apart here.
How the values were obtained:
[1] = target: NRAS G12C (Homo sapiens (Human), UniProt P01111+P62937, G12C); assay: Ras-Raf disruption/FRET/MOA assay (BRAF RBD, Cyclophilin A); format: biochemical; conditions: read-out: NRAS G12C FRET data IC50
Outline: (§1)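 25 μM tagless Cyclophilin A, 12.5 nM His6-Ras-GMPPNP and 50 nM GST-BRAF RBD in HEPES pH 7.3 buffer with 5 mM MgCl2, with compound (10-point 3-fold series from 30 μM final) for 3 h at 25 °C. Anti-His Eu and anti-GST APC then added for 1.5 h. IC50 from TR-FRET ratio decrease versus DMSO.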

[2] = target: KRAS G12D (Homo sapiens (Human), UniProt P01116+P62937, G12D); assay: as above; format: biochemical; conditions: read-out: KRAS G12D FRET IC50
Chain of KRAS G12D (P01116 other isoform, or with tags, fused parts or gaps G12D): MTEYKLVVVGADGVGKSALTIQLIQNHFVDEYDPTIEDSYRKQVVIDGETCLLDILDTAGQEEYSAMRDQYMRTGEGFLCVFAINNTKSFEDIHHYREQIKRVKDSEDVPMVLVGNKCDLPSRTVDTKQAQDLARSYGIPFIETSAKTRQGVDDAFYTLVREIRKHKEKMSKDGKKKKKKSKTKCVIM
Chain of KRAS G12D (P62937 whole entry): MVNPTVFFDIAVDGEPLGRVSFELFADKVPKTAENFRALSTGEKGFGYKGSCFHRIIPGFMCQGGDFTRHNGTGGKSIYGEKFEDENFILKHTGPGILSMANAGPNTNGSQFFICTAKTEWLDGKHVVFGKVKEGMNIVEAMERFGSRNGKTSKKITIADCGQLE
Outline: (§2)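 TR-FRET readout: anti-His Eu-W1024 (10 nM) and anti-GST allophycocyanin (50 nM) added after 3 h, 25° C compound incubation, then 1.5 h more. Decrease in FRET ratio versus DMSO wells marks Ras:RAF disruption; IC50 reported.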

[3] = target: KRAS G12C (Homo sapiens (Human), UniProt P01116+P62937, G12C); assay: as above; format: biochemical; conditions: read-out: KRAS G12C FRET IC50
Chain of KRAS G12C (P01116-2 other isoform, or with tags, fused parts or gaps G12C): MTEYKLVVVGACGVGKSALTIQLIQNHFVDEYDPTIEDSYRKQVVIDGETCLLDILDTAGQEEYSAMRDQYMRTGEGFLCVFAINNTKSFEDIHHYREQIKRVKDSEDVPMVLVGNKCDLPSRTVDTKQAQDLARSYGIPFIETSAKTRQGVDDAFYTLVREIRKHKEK
Chain of KRAS G12C (P62937 whole entry): as the sequence (P62937 whole entry) above
Outline: as §2

[4] = target: NRAS Q61R (Homo sapiens (Human), UniProt P01111+P62937, Q61R); assay: as above; format: biochemical
Chain of NRAS Q61R (P01111 whole entry Q61R): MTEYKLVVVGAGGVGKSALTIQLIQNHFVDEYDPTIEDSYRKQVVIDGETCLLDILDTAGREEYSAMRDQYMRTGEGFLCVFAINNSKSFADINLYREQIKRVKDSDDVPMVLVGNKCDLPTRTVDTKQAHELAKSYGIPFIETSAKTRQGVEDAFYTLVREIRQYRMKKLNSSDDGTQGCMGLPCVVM
Chain of NRAS Q61R (P62937 whole entry): as the sequence (P62937 whole entry) above
Outline: as §1

[5] = target: NRAS Q61K (Homo sapiens (Human), UniProt P01111+P62937, Q61K); assay: as above; format: biochemical
Chain of NRAS Q61K (P01111 whole entry Q61K): as the sequence (P01111 whole entry Q61R) above, with R61K counted along it
Chain of NRAS Q61K (P62937 whole entry): as the sequence (P62937 whole entry) above
Outline: as §1

[6] = target: KRAS Q61H (Homo sapiens (Human), UniProt P01116+P62937, Q61H); assay: as above; format: biochemical
Chain of KRAS Q61H (P01116 other isoform, or with tags, fused parts or gaps Q61H): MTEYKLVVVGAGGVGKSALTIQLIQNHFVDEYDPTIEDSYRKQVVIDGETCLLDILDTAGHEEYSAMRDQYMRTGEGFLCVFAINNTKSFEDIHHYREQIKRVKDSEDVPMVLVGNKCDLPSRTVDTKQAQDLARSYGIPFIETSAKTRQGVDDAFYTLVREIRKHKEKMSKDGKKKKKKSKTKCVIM
Chain of KRAS Q61H (P62937 whole entry): as the sequence (P62937 whole entry) above
Outline: as §2

[7] = target: KRAS G12V (Homo sapiens (Human), UniProt P01116+P62937, G12V); assay: as above; format: biochemical; conditions: read-out: KRAS G12V FRET IC50
Chain of KRAS G12V (P01116 other isoform, or with tags, fused parts or gaps G12V): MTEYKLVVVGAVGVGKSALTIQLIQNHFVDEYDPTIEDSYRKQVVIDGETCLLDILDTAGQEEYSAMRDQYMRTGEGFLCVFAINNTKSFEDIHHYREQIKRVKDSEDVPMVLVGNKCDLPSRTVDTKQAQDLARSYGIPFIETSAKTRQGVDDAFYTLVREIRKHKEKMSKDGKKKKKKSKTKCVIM
Chain of KRAS G12V (P62937 whole entry): as the sequence (P62937 whole entry) above
Outline: as §2

[8] = target: KRAS G13C (Homo sapiens (Human), UniProt P01116+P62937, G13C); assay: as above; format: biochemical; conditions: read-out: KRAS G13C FRET IC50
Chain of KRAS G13C (P01116 other isoform, or with tags, fused parts or gaps G13C): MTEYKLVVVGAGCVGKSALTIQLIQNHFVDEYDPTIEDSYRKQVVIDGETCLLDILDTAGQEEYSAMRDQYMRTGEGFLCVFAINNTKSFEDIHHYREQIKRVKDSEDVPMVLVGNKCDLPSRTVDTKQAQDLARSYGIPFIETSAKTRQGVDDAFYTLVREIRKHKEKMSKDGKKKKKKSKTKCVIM
Chain of KRAS G13C (P62937 whole entry): as the sequence (P62937 whole entry) above
Outline: as §2

[9] = target: KRAS G12S (Homo sapiens (Human), UniProt P01116+P62937, G12S); assay: as above; format: biochemical; conditions: read-out: KRAS G12S FRET IC50
Chain of KRAS G12S (P01116 other isoform, or with tags, fused parts or gaps G12S): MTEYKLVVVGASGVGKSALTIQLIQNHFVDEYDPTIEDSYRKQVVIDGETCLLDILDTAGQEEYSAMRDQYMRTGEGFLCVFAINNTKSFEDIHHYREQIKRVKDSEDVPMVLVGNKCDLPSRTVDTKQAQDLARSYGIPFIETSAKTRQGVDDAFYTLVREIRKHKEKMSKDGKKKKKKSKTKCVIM
Chain of KRAS G12S (P62937 whole entry): as the sequence (P62937 whole entry) above
Outline: as §2

[10] = target: NRAS WT (Homo sapiens (Human), UniProt P01111+P62937); assay: as above; format: biochemical
Chain of NRAS WT (P01111 whole entry): as the sequence (P01111 whole entry Q61R) above, with R61Q counted along it
Chain of NRAS WT (P62937 whole entry): as the sequence (P62937 whole entry) above
Outline: as §1

[11] = target: KRAS WT (Homo sapiens (Human), UniProt P01116+P62937); assay: as above; format: biochemical; conditions: read-out: KRAS WT FRET data IC50
Chain of KRAS WT (P01116 other isoform, or with tags, fused parts or gaps): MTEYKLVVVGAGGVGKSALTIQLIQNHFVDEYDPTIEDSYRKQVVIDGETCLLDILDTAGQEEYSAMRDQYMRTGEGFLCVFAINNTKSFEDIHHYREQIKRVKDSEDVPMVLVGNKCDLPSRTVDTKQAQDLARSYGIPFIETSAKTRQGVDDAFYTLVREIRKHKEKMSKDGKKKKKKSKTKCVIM
Chain of KRAS WT (P62937 whole entry): as the sequence (P62937 whole entry) above
Outline: as §2

[12] = target: KRAS G13D (Homo sapiens (Human), UniProt P01116+P62937, G13D); assay: as above; format: biochemical; conditions: read-out: KRAS G13D FRET data IC50
Chain of KRAS G13D (P01116 other isoform, or with tags, fused parts or gaps G13D): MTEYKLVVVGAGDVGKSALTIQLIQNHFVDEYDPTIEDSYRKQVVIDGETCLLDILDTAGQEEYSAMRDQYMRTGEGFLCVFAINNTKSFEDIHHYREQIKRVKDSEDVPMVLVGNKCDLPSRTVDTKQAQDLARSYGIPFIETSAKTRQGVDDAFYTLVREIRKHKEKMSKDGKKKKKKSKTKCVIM
Chain of KRAS G13D (P62937 whole entry): as the sequence (P62937 whole entry) above
Outline: as §2

[13] = tested on: NCI-H358 (K-Ras G12C); assay: CellTiter-Glo cell viability assay, NCI-H358; format: cell-based, human; conditions: Homo sapiens, NCI-H358, 120 h, 5-day treatment; read-out: H358 Cell Viability assay data (K-Ras G12C, IC50)
Outline: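 NCI-H358 cells were treated with test compounds dispensed directly into the assay wells and incubated until day 5. Viability was then read by CellTiter-Glo luminescence after a ~30 min room-temperature equilibration, normalized to the DMSO average (×100), and fit with a four-parameter logistic curve.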

[14] = target: K-Ras G12C(GMP-PNP) binding to BRAF RBD (Homo sapiens (Human), UniProt P01116+P62937, G12C); assay: Disruption of BRAF RBD interaction with K-Ras (FRET / MOA assay), K-Ras G12C; format: biochemical; conditions: read-out: KRAS G12C FRET IC50
Chain of K-Ras G12C(GMP-PNP) binding to BRAF RBD (P01116 other isoform, or with tags, fused parts or gaps G12C): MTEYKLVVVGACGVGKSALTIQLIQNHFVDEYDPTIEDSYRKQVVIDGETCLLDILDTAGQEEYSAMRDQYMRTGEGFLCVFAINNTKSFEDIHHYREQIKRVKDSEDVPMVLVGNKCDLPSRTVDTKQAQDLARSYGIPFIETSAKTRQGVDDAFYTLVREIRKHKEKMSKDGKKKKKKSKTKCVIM
Chain of K-Ras G12C(GMP-PNP) binding to BRAF RBD (P62937 whole entry): as the sequence (P62937 whole entry) above
Outline: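 First, test compounds in a 10-point 3-fold series (30 μM final top) were incubated for 3 hours at 25° C with nucleotide-loaded Ras, cyclophilin A and a BRAF RBD construct. Next, Eu anti-His and allophycocyanin anti-GST detection reagents were added for 1.5 hours. Finally, IC50s were derived from loss of TR-FRET signal against DMSO.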

[15] = tested on: Capan-1 cells (K-Ras G12V); assay: CellTiter-Glo cell viability, Capan-1; format: cell-based, human; conditions: Homo sapiens, CAPAN-1, 120 h, read-out: Capan-1 Cell Viability IC50
Outline: (§3)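 Compounds were dispensed directly onto seeded cells and incubated until day 5, then plates were equilibrated at room temperature for about 30 min before CellTiter-Glo luminescence readout. Signals were normalized as (sample/average DMSO)×100 and fitted with a four-parameter logistic model.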

[16] = tested on: NCI-H358 cells (K-Ras G12C); assay: CellTiter-Glo cell viability, NCI-H358; format: cell-based, human; conditions: Homo sapiens, NCI-H358, 120 h, read-out: H358 Cell Viability IC50
Outline: as §3

Chain of NRAS G12C (P01111 whole entry G12C): as the sequence (P01111 whole entry Q61R) above, with G12C, R61Q counted along it
Chain of NRAS G12C (P62937 whole entry): as the sequence (P62937 whole entry) above

Row | Structure (SMILES) | IC50 [1] | IC50 [2] | IC50 [3] | IC50 [4] [nM] | IC50 [5] [nM] | IC50 [6] [nM] | IC50 [7] | IC50 [8] [nM] | IC50 [9] | IC50 [10] [nM] | IC50 [11] | IC50 [12] | IC50 [13] [nM] | IC50 [14] [nM] | IC50 ([15]; K-Ras G12V, 5-day treatment) [nM] | IC50 ([16]; K-Ras G12C, 5-day treatment) [nM] | IC50 [16] [nM] | IC50 [15] [nM]
1 | CCn1c(-c2cccnc2[C@H](C)OC)c2c3cc(ccc31)-c1cc(O)cc(c1)C[C@H](NC(=O)C(C)C1CCOCC1)C(=O)N1CCC[C@H](N1)C(=O)OCC(C)(C)C2 (stereo partly shown) [Compound A236] | 100 to 1000 nM and 1000 to 10000 nM | 1000 to 10000 nM and > 10000 nM | 100 to 1000 nM and 1000 to 10000 nM | 1000 to 10000 | 100 to 1000 | 10 to 100 | 100 to 1000 nM and 1000 to 10000 nM | 100 to 1000 | 100 to 1000 nM and 1000 to 10000 nM | 100 to 1000 | 100 to 1000 nM and 1000 to 10000 nM | 100 to 1000 nM and 1000 to 10000 nM | > 10000 | > 10000 |  |  |  | 
2 | CCn1c(-c2cccnc2[C@H](C)OC)c2c3cc(ccc31)-c1csc(n1)C[C@H](NC(=O)[C@H](C(C)C)N(C)C(=O)N1CCC1C(=O)O)C(=O)N1CCC[C@H](N1)C(=O)OCC(C)(C)C2 (stereo partly shown) [Compound A271] | 1000 to 10000 nM | > 10000 nM | 1000 to 10000 nM | 1000 to 10000 | 100 to 1000 | 100 to 1000 | 1000 to 10000 nM | 1000 to 10000 | 1000 to 10000 nM | 1000 to 10000 | 1000 to 10000 nM | > 10000 nM | > 10000 | > 10000 | > 10000 |  |  | 
3 | CCn1c(-c2cccnc2[C@H](C)OC)c2c3cc(ccc31)-c1cc(O)cc(c1)C[C@H](NC(=O)[C@H](C(C)C)N(C)C(=O)[C@H]1C[C@H]1O)C(=O)N1CCC[C@H](N1)C(=O)OCC(C)(C)C2 [Compound A554] | 10 to 100 nM | 100 to 1000 nM | 10 to 100 nM | 100 to 1000 | 100 to 1000 | 10 to 100 | 10 to 100 nM | 10 to 100 | 10 to 100 nM | 10 to 100 | 10 to 100 nM | 100 to 1000 nM |  |  | 1000 to 10000 | 100 to 1000 |  | 
4 | CCn1c(-c2cccnc2[C@H](C)OC)c2c3cc(ccc31)-c1csc(n1)C[C@H](NC(=O)[C@H](C(C)C)N1CCC3(COC3)C1)C(=O)N1CCC[C@H](N1)C(=O)OCC(C)(C)C2 [Compound A561] | 10 to 100 nM | 100 to 1000 nM | 10 to 100 nM | 10 to 100 | 10 to 100 | 10 to 100 | 100 to 1000 nM | 100 to 1000 | 10 to 100 nM | 10 to 100 | 10 to 100 nM | 100 to 1000 nM |  |  | 10 to 100 | < 10 |  | 
5 | CCn1c(-c2cccnc2[C@H](C)OC)c2c3cc(ccc31)-c1csc(n1)C[C@H](NC(=O)[C@H](C(C)C)N(C)C(=O)N(C)[C@@H]1CCN(C)C1)C(=O)N1CCC[C@H](N1)C(=O)OCC(C)(C)C2 [Compound A564] | 100 to 1000 nM | 100 to 1000 nM | 100 to 1000 nM | 100 to 1000 | 100 to 1000 | 10 to 100 | 100 to 1000 nM | 100 to 1000 | 100 to 1000 nM | 100 to 1000 | 100 to 1000 nM | 100 to 1000 nM |  |  | 100 to 1000 | 10 to 100 |  | 
6 | CCn1c(-c2cccnc2[C@H](C)OC)c2c3cc(ccc31)-c1csc(n1)C[C@H](NC(=O)[C@H](C(C)C)N(C)C(=O)N1CCCC3(CN(C)C3)C1)C(=O)N1CCC[C@H](N1)C(=O)OCC(C)(C)C2 [Compound A589] | 100 to 1000 nM | 100 to 1000 nM | 100 to 1000 nM | 100 to 1000 | 100 to 1000 | 10 to 100 | 100 to 1000 nM | 100 to 1000 | 100 to 1000 nM | 100 to 1000 | 100 to 1000 nM | 100 to 1000 nM |  |  | 100 to 1000 | 10 to 100 |  | 
7 | CCn1c(-c2cccnc2[C@H](C)OC)c2c3cc(ccc31)-c1cc(cc(C(F)F)c1)C[C@H](NC(=O)[C@H](C(C)C)N(C)C(=O)[C@@H]1OCC[C@@H]1c1ccccc1)C(=O)N1CCC[C@H](N1)C(=O)OCC(C)(C)C2 [Compound A592] | 100 to 1000 nM | 1000 to 10000 nM | 100 to 1000 nM | 1000 to 10000 | 100 to 1000 | 100 to 1000 | 1000 to 10000 nM | 100 to 1000 | 1000 to 10000 nM | 1000 to 10000 | 1000 to 10000 nM | 1000 to 10000 nM |  |  |  |  | 100 to 1000 | 1000 to 10000
8 | CCn1c(-c2cccnc2[C@H](C)OC)c2c3cc(ccc31)-c1csc(n1)C[C@H](NC(=O)[C@H](C(C)C)N(C)C(=O)N(C)C1CN(C)C1)C(=O)N1CCC[C@H](N1)C(=O)OCC(C)(C)C2 [Compound A611] | 100 to 1000 nM | 100 to 1000 nM | 100 to 1000 nM | 100 to 1000 | 100 to 1000 | 100 to 1000 | 1000 to 10000 nM | 100 to 1000 | 100 to 1000 nM | 100 to 1000 | 100 to 1000 nM | 100 to 1000 nM |  |  | 100 to 1000 | 100 to 1000 |  | 
9 | CCn1c(-c2cccnc2[C@H](C)OC)c2c3cc(ccc31)-c1cc(O)cc(c1)C[C@H](NC(=O)[C@H](C(C)C)N(C)C(=O)[C@@]1(F)CCN(C(=O)OC)C1)C(=O)N1CCC[C@H](N1)C(=O)OCC(C)(C)C2 [Compound A615] | 10 to 100 nM | 100 to 1000 nM | 10 to 100 nM | 100 to 1000 | 100 to 1000 | 10 to 100 | 10 to 100 nM | 10 to 100 | 10 to 100 nM | 10 to 100 | 10 to 100 nM | 10 to 100 nM |  |  | 10 to 100 | 10 to 100 |  | 
